According to ChEMBL document CHEMBL1201862, “PubChem BioAssay data set” (2004):
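Exposure lasted 48 hours, with cells grown in 96-well plates and compounds tested at five concentrations. GI50: concentration for 50% inhibition of growth.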 Active and inactive are the calls of the source. No stated cut-off is given here; in the data, active = GI50 up to about 1.1 µM and inactive = higher.

Key:
Test in all cases: growth of human tumour cells (NCI), 48 h
[1] = system: M14
[2] = system: OVCAR-5
[3] = system: EKVX
[4] = system: M19-MEL
[5] = system: SNB-78
[6] = system: A498
[7] = system: XF498
[8] = system: DMS-273
[9] = system: SN12C
[10] = system: SF-539
[11] = system: DMS-114
[12] = system: SK-MEL-5
[13] = system: OVCAR-8
[14] = system: LOX IMVI
[15] = system: NCI/ADR-RES
[16] = system: MCF7

Measured: GI50

CC(OC(C)(C)C)[C@H](NC(=O)OCC(Cl)(Cl)Cl)C(=O)O (some centres undefined)
inactive: [1] > 100 µM | [2] > 100 µM | [3] > 100 µM | [4] > 100 µM | [5] > 100 µM | [6] > 100 µM | [7] > 100 µM | [8] > 100 µM | [9] > 100 µM | [10] > 100 µM | [11] > 100 µM | [12] > 100 µM | [13] > 100 µM

O=C1NC2=C(CCCC/C2=N\O)C12CCCCC2
inactive: [1] > 100 µM | [2] > 100 µM | [14] > 100 µM | [3] > 100 µM | [4] > 100 µM | [5] > 100 µM | [6] > 100 µM | [7] > 100 µM | [9] > 100 µM | [10] > 100 µM | [11] > 100 µM

O=C1ON(Cc2ccccc2)C(c2ccccc2)N1c1ccccc1 (centres undefined)
inactive: [2] > 100 µM | [14] > 100 µM | [3] > 100 µM | [4] > 100 µM | [5] > 100 µM | [6] > 100 µM | [15] > 100 µM | [7] > 100 µM | [8] > 100 µM | [16] > 100 µM | [9] > 100 µM | [10] > 100 µM | [11] > 100 µM | [12] > 100 µM | [13] > 100 µM

COC(=O)c1ccc(/N=N/N(C)COc2ccc([N+](=O)[O-])cc2)cc1
inactive: [2] > 95.7 µM | [14] > 86.9 µM | [3] > 100 µM | [4] > 100 µM | [5] > 100 µM | [6] > 87.5 µM | [15] > 100 µM | [7] > 100 µM | [8] > 100 µM | [16] > 81.5 µM | [9] > 100 µM | [10] 88.7 µM | [11] > 100 µM | [12] > 96.8 µM | [13] > 100 µM

O=NN1C(c2ccccc2)CCCC1c1ccccc1 (centres undefined)
inactive: [2] > 100 µM | [14] 74.8 µM | [3] > 62.2 µM | [4] 85.9 µM | [5] 46.2 µM | [6] 15.1 µM | [15] 51.1 µM | [7] 31.7 µM | [8] 39.8 µM | [16] 37.9 µM | [9] > 100 µM | [10] > 100 µM | [11] 28.6 µM | [12] 49.4 µM | [13] > 43.8 µM

C=CCN1/C(=C(\C#N)c2nc3ccccc3[nH]2)Sc2c1nc[nH]c2=O
inactive: [1] > 100 µM | [2] > 100 µM | [3] > 100 µM | [4] > 100 µM | [5] > 100 µM | [6] > 100 µM | [7] > 100 µM | [8] > 100 µM | [9] > 100 µM | [10] > 100 µM | [11] > 100 µM | [12] > 100 µM | [13] > 100 µM

O=C1C=CC2=[N+]([O-])C(c3ccccc3)(c3ccccc3)/C(=N\c3ccccc3)C2=C1
inactive: [1] 1.97 µM | [2] 16.4 µM | [14] 1.8 µM | [3] 4.14 µM | [4] 1.77 µM | [5] 3.74 µM | [7] 1.31 µM | [8] 2.38 µM | [9] 2.22 µM | [10] 6.85 µM | [11] 1.85 µM | [12] 14.2 µM | [13] 1.75 µM

COC(=O)C12CC3CC(CC(C(=O)O)(C3)C1)C2
inactive: [1] > 100 µM | [2] > 100 µM | [14] > 100 µM | [3] > 100 µM | [4] > 100 µM | [5] > 100 µM | [6] > 100 µM | [7] > 100 µM | [8] > 100 µM | [9] > 100 µM | [10] > 100 µM | [12] > 100 µM | [13] > 100 µM

CC(=O)O[C@]12CCCCCC1C1(O)C(O)CCCC[C@H]12 (some centres undefined)
inactive: [1] > 100 µM | [14] > 100 µM | [3] > 100 µM | [4] > 100 µM | [5] > 100 µM | [7] > 100 µM | [8] > 100 µM | [9] > 100 µM | [11] > 100 µM | [12] > 100 µM | [13] > 100 µM
